Assay results taken from publication PMC6017415, “Carbamates as Potential Prodrugs and a New Warhead for HDAC Inhibition” (Molecules : A Journal of Synthetic Chemistry and Natural …, 2018).
Several values for one entry are separate records, joined by “and”; a condition that tells them apart may be missing. Equal entries are not always repeated.

Experiments:
[1] = target: T1, recombinant human HDAC1 (Homo sapiens, UniProt Q13547); test: HDAC1 in vitro fluorescence-based inhibition assay (ZMAL substrate); type: biochemical; conditions: recombinant human HDAC1, ZMAL 10.5 µM, 90 min 37 °C; read-out: IC50 (µM) ± SE HDAC1
T1 construct: purchased BPS Biosciences (San Diego, CA, USA)
Text: (§1) In order to investigate a potential subtype selectivity among different HDAC classes, we first tested them against the recombinant histone deacetylases HDAC1 (class I) and HDAC6 (class llb). […] To further address this issue, we also tested the respective compounds against the class l histone deacetylase HDAC8 (also see Table 1).
(§2) Recombinant human HDAC1 and 6 were purchased from BPS Biosciences (San Diego, CA, USA), and recombinant human HDAC8 was produced as described before. Inhibition tests of human HDAC1 and 6 were conducted using carboxybenzyl acetyllysine aminomethylcoumarin (ZMAL) as a substrate. […] For testing of HDAC8, the commercial Fluor de Lys drug discovery kit (BML-KI178) (Enzo Life Sciences, Lausen, Switzerland) was used according to the manufacturer’s instruction. Briefly, the test compound, Fluor de Lys-HDAC8 substrate (50 μM), and enzyme were incubated for 90 min at 37 °C with subsequent addition of 50 μL of Developer II (BML-KI176) (Enzo Life Sciences, Lausen, Switzerland) and further incubation for 45 min at 30 °C. In both assays, trichostatin A (2 μM) was used to stop the reaction. Fluorescence in both cases was measured in a plate reader (BMG Polarstar, BMG Labtech, Ortenberg, Germany) with excitation at λ = 390 nm and emission at λ = 460 nm.

[2] = target: T2, recombinant human HDAC6 (Homo sapiens, UniProt Q9UBN7); test: HDAC6 in vitro fluorescence-based inhibition assay (ZMAL substrate); type: biochemical; conditions: recombinant human HDAC6, ZMAL 10.5 µM, 90 min 37 °C; read-out: IC50 (µM) ± SE HDAC6
T2 construct: purchased BPS Biosciences (San Diego, CA, USA)
T2 sequence (Q9UBN7 1-1215): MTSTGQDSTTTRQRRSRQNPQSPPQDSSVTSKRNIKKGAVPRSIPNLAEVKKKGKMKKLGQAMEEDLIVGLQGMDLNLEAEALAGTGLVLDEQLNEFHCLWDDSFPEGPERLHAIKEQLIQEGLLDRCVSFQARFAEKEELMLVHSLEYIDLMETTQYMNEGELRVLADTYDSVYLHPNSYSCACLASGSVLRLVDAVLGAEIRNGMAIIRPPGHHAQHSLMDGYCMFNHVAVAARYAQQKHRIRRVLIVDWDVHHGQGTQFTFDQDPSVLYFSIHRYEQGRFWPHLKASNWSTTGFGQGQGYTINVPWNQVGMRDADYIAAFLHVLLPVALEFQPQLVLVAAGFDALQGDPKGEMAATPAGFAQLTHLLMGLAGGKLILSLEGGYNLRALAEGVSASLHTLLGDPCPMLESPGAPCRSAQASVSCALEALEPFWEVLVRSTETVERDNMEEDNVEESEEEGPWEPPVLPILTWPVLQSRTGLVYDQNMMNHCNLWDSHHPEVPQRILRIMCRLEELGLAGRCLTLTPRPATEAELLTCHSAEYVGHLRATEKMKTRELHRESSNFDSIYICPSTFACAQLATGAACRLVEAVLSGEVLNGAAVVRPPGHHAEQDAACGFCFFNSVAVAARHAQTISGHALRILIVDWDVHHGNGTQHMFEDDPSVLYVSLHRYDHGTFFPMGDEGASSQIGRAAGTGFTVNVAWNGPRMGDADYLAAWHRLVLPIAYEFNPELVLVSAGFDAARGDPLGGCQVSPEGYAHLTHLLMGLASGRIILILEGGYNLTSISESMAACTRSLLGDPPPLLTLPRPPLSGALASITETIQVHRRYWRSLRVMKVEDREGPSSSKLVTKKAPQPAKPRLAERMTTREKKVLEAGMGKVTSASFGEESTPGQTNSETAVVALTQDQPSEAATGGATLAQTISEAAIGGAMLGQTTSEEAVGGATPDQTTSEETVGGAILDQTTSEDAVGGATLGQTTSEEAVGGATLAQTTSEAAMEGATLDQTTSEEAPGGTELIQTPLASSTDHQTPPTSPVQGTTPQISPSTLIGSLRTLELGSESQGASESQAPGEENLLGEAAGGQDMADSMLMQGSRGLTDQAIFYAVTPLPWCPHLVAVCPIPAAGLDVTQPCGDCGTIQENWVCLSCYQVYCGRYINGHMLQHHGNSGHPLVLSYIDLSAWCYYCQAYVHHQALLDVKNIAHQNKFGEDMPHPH
Text: as §1, §2

[3] = system: acetylation of histone H3 and tubulin in HL60 cells; test: Western blot of acetylation levels of histone H3 and tubulin in HL60 cells; type: cell-based, human; conditions: 4 h
Protocol: An inhibition of deacetylation in this experiment is expected to lead to hyperacetylation of the respective proteins. Besides histone H3, acetylated tubulin was chosen as a target protein. As tubulin is only accepted as a target by HDAC 6 [21], this allows us to explore subtype selectivity in a cellular setting (see Figure 4).
HL60 cells were treated with the inhibitors in the given concentrations. Cells treated with dimethyl sulfoxide as a vehicle were used as controls. After an incubation time of 4 h, cells were transferred into 50-mL Falcon tubes and centrifuged (300× g, 5 min). The supernatant was removed, and the cells were washed with PBS, before they were transferred to 1.7-mL reaction tubes. The cells were lysated with Bio-Rad loading buffer, and the cell suspension was heated to 95 °C for 5 min. The proteins then were separated using a 15% SDS-polyacrylamide gel electrophoresis and transferred to a polyvinylidene fluoride (PVDF) membrane (Roti-PVDF, Carl Roth, Karlsruhe, Germany). Acetylation levels were detected using an anti-acetyl histone H3 antibody (Millipore, Billerica, MA, USA) and an anti-acetyl-α-tubulin antibody (Sigma Aldrich, St. Louis, MO, USA). An antibody directed against GAPDH (Sigma Aldrich) was used as a loading control.

[4] = system: HL60 cells; test: Cell proliferation assay (CellTiter 96 AQueous) in HL60 cells; conditions: Homo sapiens, HL-60, 72 h, read-out: GI50 (µM) ± SE HL60
Protocol: (§3) To further investigate the inhibition properties of the carbamates, we tested their antiproliferative activity on human promyelocytic leukemia cells (HL60) and on human histiocytic lymphoma cells (U937).
(§4) HL60 or U937 cells were seeded in 96-well tissue culture plates at a density of 5 × 10^4 cells per well. Cells were immediately incubated with inhibitors. As these cells already differentiate with 1% DMSO content, inhibitors were prepared as 200× stock solutions in DMSO. In all cases, inhibitors were compared to DMSO vehicle only, and three replicates per concentration were used. Growth inhibition was determined using the CellTiter 96® AQueous Non-Radioactive Cell Proliferation Assay according to the manufacturer’s instructions. Briefly, 5 × 10^4 of HL60 or U937 cells per well were treated with DMSO stocks of the respective inhibitors or with DMSO in 100 µL cell culture medium and incubated for 72 h at 37 °C and 5% CO2 in transparent 96-well microtiter plates (PAA). Subsequently, 20 µL of the detection reagent (containing a tetrazolium salt) was added to each well and incubated for 4 more hours under the same conditions. After this time, absorption was measured at a wavelength of 490 nm (BMG Polarstar, BMG Labtech, Ortenberg, Germany).

[5] = target: T3, recombinant human HDAC8 (Homo sapiens, UniProt Q9BY41); test: HDAC8 in vitro inhibition assay (Fluor de Lys kit); type: biochemical; conditions: for inhibition at 100 µM: read-out: Inhibition (%) @ Conc. (µM) HDAC8
T3 construct: made in house
T3 sequence (Q9BY41 1-377): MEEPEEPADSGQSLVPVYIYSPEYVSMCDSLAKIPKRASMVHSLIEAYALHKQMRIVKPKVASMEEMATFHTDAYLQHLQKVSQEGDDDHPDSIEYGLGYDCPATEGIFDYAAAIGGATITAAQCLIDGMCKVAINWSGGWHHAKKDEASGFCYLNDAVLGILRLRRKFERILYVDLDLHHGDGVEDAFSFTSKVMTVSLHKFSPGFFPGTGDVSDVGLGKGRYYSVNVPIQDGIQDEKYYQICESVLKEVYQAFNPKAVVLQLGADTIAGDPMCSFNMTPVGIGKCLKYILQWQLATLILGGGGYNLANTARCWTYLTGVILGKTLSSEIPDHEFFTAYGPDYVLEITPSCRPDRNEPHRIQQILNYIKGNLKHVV
Text: as §1, §2

[6] = Stability analysis under in vitro assay conditions, HPLC quantification of released hydroxamic acid; type: physicochemical; conditions: in vitro assay conditions without substrate, HDAC1 present, compound 2.4 mM, 90 min 37 °C
Protocol: In order to address the question if the newly-synthesized carbamates are hydrolyzed during the assay procedure or if they really serve as HDAC inhibitors themselves, stability stress tests were performed. For this purpose, the compounds were subjected to the standard in vitro assay conditions, but without adding a substrate as, no enzyme conversion should be observed in these experiments. After 90 min of incubation at 37 °C, the release of SAHA of the different samples was detected and quantified via HPLC. This led to the finding that a release of SAHA could be detected for all samples (see Table 1). […] This means that the question if the carbamate scaffold represents a new warhead for HDAC inhibition or if the degradation to SAHA is solely responsible for the observed inhibitory effects cannot be resolved completely.
To test the stability of Compound 9 under assay conditions, we also performed stability analysis with HPLC quantification. This experiment led to the finding that 8.7% of the carbamate 9 is degraded under release of bufexamac during incubation time. This fraction of released bufexamac may contribute to in vitro and cellular HDAC inhibition, but the observed selectivity profile of the carbamate in the in vitro assays clearly implies an intrinsic HDAC activity of carbamates.
For stability tests, the carbamates were subjected to the described in vitro assay conditions (see above) without adding the substrate ZMAL and without the second incubation step with trypsin. Compounds were applied in a final concentration of 2.4 mM, and recombinant HDAC1 was used as the enzyme. After 90 min of incubation at 37 °C, the release of SAHA was detected via HPLC on an Agilent 1200 series device. The employed analytical column was a Kinetex 5u XB-C18, 100 Å, 250 × 4.6 mm (Phenomenex, Torrance, CA, USA) with the ReproSil 100 C18 5-µm precolumn (Jasco, Oklahoma City, OK, USA). The following conditions were applied: Eluent A: H2O containing 0.05% TFA, Eluent B: acetonitrile containing 0.05% TFA, linear gradient conditions (0–4 min, A = 90%, B = 10%; 4–29 min, linear increase to 100% of B; 29–31 min, B = 100%; 31.5–40 min, A = 10%, B = 90%); injection volume: 30 µL, flow rate: 1 mL/min; detection wavelength: λ = 254 nm. For evaluation, the ChemStation software from Agilent was used. To quantify the released amount of SAHA and bufexamac, calibration curves were plotted by incubating DMSO stocks of these compounds under in vitro assay conditions with final compound concentrations ranging from 1 µM–200 µM. HPLC analysis with the conditions described above led to the following equations: y = 13.935x − 27.918 for SAHA and y = 0.6099x + 1.1301 for bufexamac.

[7] = system: HDAC activity in HL60 cells; test: Cellular HDAC inhibition assay (MAL substrate) in HL60 cells; conditions: Homo sapiens, HL-60, read-out: IC50 (µM) ± SE cellular HDAC inhibition HL60
Protocol: (§5) Therefore, we decided to adapt this assay for a cellular setting allowing us to verify the previous results by assessing HDAC inhibition in the human leukemia cell lines HL60 and U937 (see the right side of Table 2).
(§6) After 2 h of incubation, 50 µL substrate solution were added, containing tert-butyloxycarbonyl acetyl lysine aminomethylcoumarin (MAL) as a substrate (300 µM final assay concentration) and IGEPAL CA-630 (final concentration 0.05%). After 2 more hours of incubation at 37 °C and 5% CO2, 50 µL stop solution consisting of 0.5 µL TSA (100 µM) and 5 µL trypsin solution (10 mg/mL) in 44.5 µL cell buffer were added. This mixture was incubated for a further 20 min at 37 °C. Fluorescence was measured in a plate reader (BMG Polarstar) with excitation at λ = 390 nm and emission at λ = 460 nm.

[8] = system: HDAC activity in U937 cells; test: Cellular HDAC inhibition assay (MAL substrate) in U937 cells; conditions: Homo sapiens, U-937, read-out: IC50 (µM) ± SE cellular HDAC inhibition U937
Protocol: as §5, §6

[9] = system: U937 cells; test: Cell proliferation assay (CellTiter 96 AQueous) in U937 cells; conditions: Homo sapiens, U-937, 72 h, read-out: GI50 (µM) ± SE U937
Protocol: as §3, §4

T1 sequence (Q13547 whole entry): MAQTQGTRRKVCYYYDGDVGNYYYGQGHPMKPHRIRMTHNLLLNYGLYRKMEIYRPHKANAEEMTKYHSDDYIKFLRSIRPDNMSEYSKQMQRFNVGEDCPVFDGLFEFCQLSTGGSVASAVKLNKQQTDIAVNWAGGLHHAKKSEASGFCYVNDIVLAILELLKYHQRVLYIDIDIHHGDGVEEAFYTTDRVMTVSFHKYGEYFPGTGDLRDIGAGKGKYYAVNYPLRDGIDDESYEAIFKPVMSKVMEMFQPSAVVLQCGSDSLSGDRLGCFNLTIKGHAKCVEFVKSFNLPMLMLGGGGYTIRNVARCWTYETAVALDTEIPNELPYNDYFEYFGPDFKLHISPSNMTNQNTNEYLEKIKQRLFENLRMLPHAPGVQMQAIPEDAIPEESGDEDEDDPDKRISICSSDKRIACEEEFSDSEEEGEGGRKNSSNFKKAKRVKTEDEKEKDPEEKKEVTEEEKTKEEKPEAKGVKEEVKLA

| IC50 [1] [µM] | IC50 [2] [µM] | GI50 [4] [µM] | IC50 ([5]; recombinant human HDAC8, Fluor de Lys-HDAC8 substrate 50 µM, 90 min 37 °C, read-out: IC50 (µM) ± SE HDAC8) | Release of SAHA (%) [6] [%] | IC50 [7] [µM] | IC50 [8] [µM] | GI50 [9] [µM] | inhibition at 100 µM [5] [%] | Structure (SMILES) | acetylation levels of H3 [3] | tubulin acetylation [3] | effect on H3 and tubulin acetylation levels [3] |
| --- | --- | --- | --- | --- | --- | --- | --- | --- | --- | --- | --- | --- |
| 31.7 ± 4.75 | 2.24 ± 0.05 | 31.8 ± 0.57 |  |  |  |  |  |  | CCCCOc1ccc(CC(=O)NO)cc1 [Bufexamac (8), bufexamac, reference compound] | not affected | hyperacetylation of tubulin |  |
| 0.132 ± 0.001 | 0.187 ± 0.007 | 0.58 ± 0.05 | 6.5 µM and 6.49 µM | 4.6 | 0.69 ± 0.004 | 0.71 ± 0.002 | 0.42 ± 0.13 |  | O=C(CCCCCCC(=O)Nc1ccccc1)NOC(=O)Nc1ccccc1 [Compound 2d, [(8-Anilino-8-oxo-octanoyl)amino]N-phenylcarbamate] |  |  | in the same range as SAHA |
| 0.79 ± 0.01 | 0.58 ± 0.01 | 0.99 ± 0.17 |  | 14.5 | 1.42 ± 0.53 | 2.07 ± 0.04 | 0.88 ± 0.13 | 68 | CCNC(=O)ONC(=O)CCCCCCC(=O)Nc1ccccc1 [Compound 2c, [(8-Anilino-8-oxo-octanoyl)amino]N-ethylcarbamate] |  |  |  |
| 0.74 ± 0.01 | 0.637 ± 0.002 | 1.06 ± 0.11 |  | 0.5 | 1.89 ± 0.04 | 3.02 ± 0.03 | 0.68 ± 0.09 | 52 | O=C(CCCCCCC(=O)Nc1ccccc1)NOC(=O)NCc1ccccc1 [Compound 2b, [(8-Anilino-8-oxo-octanoyl)amino]N-benzylcarbamate] |  |  |  |
